In series [1] the target is T1, horseradish peroxidase type II (Armoracia rusticana, UniProt P00433).
T1 sequence (P00433 31-338): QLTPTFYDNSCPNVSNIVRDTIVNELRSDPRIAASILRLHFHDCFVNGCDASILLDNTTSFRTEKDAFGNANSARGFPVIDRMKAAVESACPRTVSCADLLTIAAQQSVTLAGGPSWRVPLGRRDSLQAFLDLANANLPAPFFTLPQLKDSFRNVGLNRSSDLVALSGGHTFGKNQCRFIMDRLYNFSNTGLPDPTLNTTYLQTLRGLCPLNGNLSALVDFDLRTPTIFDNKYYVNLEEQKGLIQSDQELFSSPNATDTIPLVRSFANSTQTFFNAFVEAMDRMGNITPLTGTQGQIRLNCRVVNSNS
Briefly: Oxidation of azo dyes by horseradish peroxidase preparation. It counts as biochemical. The note with it: pH 8, 37° C., H2O2. The protocol: The reaction was started with the addition of 100 μl of 50 mM H2 O2 and was followed for 1 min at 37° C. Controls were run with no addition of H2 O2 or with the addition of the hemeperoxidase inhibitor KCN (final concentration 25 μM).

For a further series, the system named is S. chromofuscus A11. Conditions: for Decolorization of growth medium by S. chromofuscus A11: both 50 and 100 ppm; for Degradation (%) after Streptomyces cultivation, strain A11: streptomyces chromofuscus a11 culture, 336 h. As to the method: (§1) Microbiol., 1984, 130:2905-2913.
(§2) Replicate sterile controls also were run in each experiment.
The Streptomyces were grown on the same media and under the same conditions as previously described. […] Thus, the spectrophotometric assays for substrates 1-12 were carried out at their specific isobastic points. Degradation was calculated as percent of substrates removed from culture broth, considering the evaporation factor (around 10%).

In the next series the test system is Mn(II)-peroxidase. Put plainly: Oxidation of dyes by P. chrysosporium Mn(II)-peroxidase. The note with it: crude enzyme, conditions specific for Mn(II)-peroxidase. It counts as biochemical, Phanerochaete chrysosporium.
The test system of another series is S. diastaticus A13. Type of series: cell-based. The note with it: streptomyces diastaticus a13 culture, 336 h.
Text: as §1, §2

A further series has as its system S. rochei A10. It counts as cell-based. The note with it: streptomyces rochei a10 culture, 336 h.
Text: as §1, §2

In another series the test system is S. diastaticus A12. It counts as cell-based. Conditions: streptomyces diastaticus a12 culture, 336 h.
Text: as §1, §2

In series [2] the test system is S. chromofuscus A11 extracellular peroxidase. Briefly: Oxidation of azo dyes by S. chromofuscus A11 crude enzyme preparation. It counts as biochemical, Streptomyces chromofuscus A11. Conditions: pH 8, 37° C., H2O2. A digest of the protocol:
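Enzyme from 48 h S. chromofuscus A11 culture supernatant, concentrated, ammonium sulfate-precipitated, dialyzed in 20 mM HEPES pH 8; yellow Sephadex G-25 fraction used. Reaction started with 100 μl 50 mM H2O2, followed 1 min at 37° C; controls without H2O2 or with 25 μM KCN.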

Series [3] concerns Phanerochaete chrysosporium. Put plainly: Substrate removal / decolorization by P. chrysosporium culture. Type of series: cell-based. The note with it: for % Decolorization, P. chrysosporium: 14 days. The protocol: Environ. Microbiol., 1981, 42:290-296), with the addition of 75 mg adenine (6-aminopurine) and 27 mg L-phenylalanine-per-liter. This addition accelerated the growth of the fungus without inhibiting ligninase activity. […] […] Cultures were incubated at 37° C. for 7 to 15 days with shaking (250 rpm). Solid agar media were also employed.

A further series relates to ligninase. Put plainly: Oxidation of dyes by P. chrysosporium ligninase (crude preparation). Type of series: biochemical, Phanerochaete chrysosporium. Conditions: for Oxidation rate of azo dyes, P. chrysosporium Ligninase: crude enzyme, conditions specific for ligninase. A digest of the protocol:
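Crude P. chrysosporium ligninase oxidation of dyes, assayed by a previously reported method; conditions as for acid yellow 9, readings every 30 s for up to 15 minutes.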

[4] abbreviates: beginning concentration 100 ppm.
Setting [5] is: beginning concentration 150 ppm.
[6] abbreviates: beginning concentration 200 ppm.
Setting [7] is: beginning concentration 300 ppm.

Consider `CCC(C)c1cc(N=Nc2ccc(S(=O)(=O)O)cc2)ccc1O` (centres unmarked) [compound 10], for which the “Oxidation rate of azo dyes, Horseradish peroxidase” value in series [1] is given as 0.35 μmoles per minute per ml. For the same compound, the “Decolorization of growth medium by S. chromofuscus A11” value (“Decolorization of growth medium” for short) in the series with S. chromofuscus A11 was “significantly decolorized”. The “Degradation (%) after Streptomyces cultivation, strain A11” value (from here on “Degradation (%) … strain A11”) with S. chromofuscus A11 came to 16%. In the series with Mn(II)-peroxidase, the “Oxidation rate of azo dyes, P. chrysosporium Mn-peroxidase” value was found to be 2.86 μmoles per minute per ml. The “Degradation (%) after Streptomyces cultivation, strain A13” value (“Degradation (%) … strain A13” below) in the series with S. diastaticus A13 amounted to 6%. Besides, the “Degradation (%) after Streptomyces cultivation, strain A10” value (shortened to “Degradation (%) … strain A10”) in the series with S. rochei A10 was 11%. In addition, the “Degradation (%) after Streptomyces cultivation, strain A12” value (“Degradation (%) … strain A12” for short) in the series with S. diastaticus A12 is recorded as 7%. Further, in series [2], the “Oxidation rate of azo dyes, S. chromofuscus peroxidase” value stood at 0.78 μmoles per minute per ml. In addition, the “Concentration of substrate after ten days cultivation with P. chrysosporium” value (“Concentration … with P. chrysosporium” below) in [3] (setting [4]) worked out at 8.135 ppm; in series [3] (setting [5]) it was 15.279 ppm; in series [3] (setting [6]), 46.588 ppm; in series [3] (setting [7]), 42.897 ppm. Besides, the “% Decolorization, P. chrysosporium” value was 90% in series [3] (initial concn 150 ppm) and 92% in series [3] (initial concn 300 ppm). The “Oxidation rate of azo dyes, P. chrysosporium Ligninase” value in the series with ligninase is 0.51 μmoles per minute per ml.
Consider `O=S(=O)(O)c1ccc(N=Nc2ccc(O)c(Cl)c2)cc1` [compound 13], for which, in series [1], the “Oxidation rate of azo dyes, Horseradish peroxidase” value worked out at 0.10 μmoles per minute per ml. The “Degradation (%) … strain A11” value in the series on S. chromofuscus A11 worked out at 5%. Also, the “Oxidation rate of azo dyes, P. chrysosporium Mn-peroxidase” value with Mn(II)-peroxidase is recorded as 0.26 μmoles per minute per ml. For the same compound, in the series with S. diastaticus A13, the “Degradation (%) … strain A13” value was determined as 1%. In addition, in the series with S. rochei A10, the “Degradation (%) … strain A10” value is 2%. Further, the “Degradation (%) … strain A12” value with S. diastaticus A12 came to 1%. Besides, the “Oxidation rate of azo dyes, S. chromofuscus peroxidase” value in series [2] was determined as 0.13 μmoles per minute per ml. The “Concentration … with P. chrysosporium” value is 7.734 ppm in [3] (setting [4]), 20.776 ppm in series [3] (setting [5]), 28.216 ppm in [3] (setting [6]) and 20.096 ppm in series [3] (setting [7]). In addition, the “% Decolorization, P. chrysosporium” value was 92% in series [3] (initial concn 150 ppm) and 88% in [3] (initial concn 300 ppm). Also, the “Oxidation rate of azo dyes, P. chrysosporium Ligninase” value in the series on ligninase is given as 0.88 μmoles per minute per ml.
Turning to `CCN(CC)c1ccc(N=Nc2ccc(S(=O)(=O)O)cc2)cc1` [compound 15], the “Oxidation rate of azo dyes, Horseradish peroxidase” value in series [1] is reported as 0.12 μmoles per minute per ml. The “Degradation (%) … strain A11” value in the series on S. chromofuscus A11 was 3%. Further, the “Oxidation rate of azo dyes, P. chrysosporium Mn-peroxidase” value with Mn(II)-peroxidase stood at 0.23 μmoles per minute per ml. The “Degradation (%) … strain A13” value with S. diastaticus A13 turned out to be 1%. Further, the “Degradation (%) … strain A10” value in the series with S. rochei A10 turned out to be 2%. In addition, in the series with S. diastaticus A12, the “Degradation (%) … strain A12” value is 1%. For the same compound, the “Oxidation rate of azo dyes, S. chromofuscus peroxidase” value in [2] is recorded as 0.17 μmoles per minute per ml. Besides, the “Concentration … with P. chrysosporium” value in [3] (setting [4]) stood at 1.901 ppm; in series [3] (setting [5]) it was 10.589 ppm; in series [3] (setting [6]), 17.931 ppm; in series [3] (setting [7]) it was 17.791 ppm. Also, the entries for the “% Decolorization, P. chrysosporium” value in series [3] (initial concn 150 ppm) and in [3] (initial concn 300 ppm) were 38% and 27%, respectively. Moreover, the “Oxidation rate of azo dyes, P. chrysosporium Ligninase” value in the series on ligninase is given as 0.75 μmoles per minute per ml.
On to `Cc1cc(N=Nc2ccc(S(=O)(=O)O)cc2)cc(C)c1O` [compound 3], for which the “Oxidation rate of azo dyes, Horseradish peroxidase” value in [1] was 30.68 μmoles per minute per ml. In addition, the “Decolorization of growth medium” value in the series with S. chromofuscus A11 was “significantly decolorized”. Further, in the series on S. chromofuscus A11, the “Degradation (%) … strain A11” value was found to be 73%. Also, the “Oxidation rate of azo dyes, P. chrysosporium Mn-peroxidase” value in the series on Mn(II)-peroxidase was 16.37 μmoles per minute per ml. Further, in the series on S. diastaticus A13, the “Degradation (%) … strain A13” value worked out at 10%. Further, in the series with S. rochei A10, the “Degradation (%) … strain A10” value stood at 68%. For the same compound, the “Degradation (%) … strain A12” value in the series on S. diastaticus A12 is given as 39%. Moreover, the “Oxidation rate of azo dyes, S. chromofuscus peroxidase” value in [2] is recorded as 17.20 μmoles per minute per ml. Also, the “Concentration … with P. chrysosporium” value in [3] (setting [4]) came to 0.358 ppm; in [3] (setting [5]), 1.223 ppm; in series [3] (setting [6]), 1.894 ppm; in [3] (setting [7]) it was 114.772 ppm. In addition, the “% Decolorization, P. chrysosporium” value in series [3] (initial concn 150 ppm) is 96%; in series [3] (initial concn 300 ppm) it was 97%. Besides, the “Oxidation rate of azo dyes, P. chrysosporium Ligninase” value with ligninase is reported as 0.42 μmoles per minute per ml.
As to `COc1cc(N=Nc2ccc(S(=O)(=O)O)cc2)cc(OC)c1O` [compound 4], the “Oxidation rate of azo dyes, Horseradish peroxidase” value in series [1] was found to be 27.04 μmoles per minute per ml. The “Decolorization of growth medium” value with S. chromofuscus A11 is listed as “significantly decolorized”. Further, the “Degradation (%) … strain A11” value in the series on S. chromofuscus A11 is listed as 83%. For the same compound, in the series with Mn(II)-peroxidase, the “Oxidation rate of azo dyes, P. chrysosporium Mn-peroxidase” value worked out at 14.33 μmoles per minute per ml. Moreover, the “Degradation (%) … strain A13” value with S. diastaticus A13 is 8%. For the same compound, the “Degradation (%) … strain A10” value with S. rochei A10 amounted to 79%. Also, the “Degradation (%) … strain A12” value with S. diastaticus A12 is listed as 39%. In addition, the “Oxidation rate of azo dyes, S. chromofuscus peroxidase” value in series [2] is on record as 15.19 μmoles per minute per ml. For the same compound, the “Concentration … with P. chrysosporium” value in series [3] (setting [4]) is 1.637 ppm; in [3] (setting [5]), 3.763 ppm; in series [3] (setting [6]), 4.218 ppm; in series [3] (setting [7]), 16.323 ppm. In addition, the results for the “% Decolorization, P. chrysosporium” value in series [3] (initial concn 150 ppm) and in series [3] (initial concn 300 ppm) were 93% and 92%, respectively. Besides, the “Oxidation rate of azo dyes, P. chrysosporium Ligninase” value in the series with ligninase is reported as 0.22 μmoles per minute per ml.
`COc1cc(N=Nc2ccc(S(=O)(=O)O)cc2)ccc1O` [compound 2]: in [1], the “Oxidation rate of azo dyes, Horseradish peroxidase” value is given as 18.19 μmoles per minute per ml. In the series on S. chromofuscus A11, the “Degradation (%) … strain A11” value is given as 73%. Besides, the “Oxidation rate of azo dyes, P. chrysosporium Mn-peroxidase” value in the series on Mn(II)-peroxidase worked out at 8.19 μmoles per minute per ml. Further, in the series with S. diastaticus A13, the “Degradation (%) … strain A13” value was found to be 18%. For the same compound, the “Degradation (%) … strain A10” value in the series with S. rochei A10 is listed as 77%. For the same compound, the “Degradation (%) … strain A12” value in the series with S. diastaticus A12 worked out at 43%. For the same compound, in series [2], the “Oxidation rate of azo dyes, S. chromofuscus peroxidase” value is on record as 3.68 μmoles per minute per ml. The “Concentration … with P. chrysosporium” value is on record as 2.493 ppm in [3] (setting [4]), 6.350 ppm in [3] (setting [5]), 10.068 ppm in series [3] (setting [6]) and 7.318 ppm in series [3] (setting [7]). Further, in series [3] (growth period of seven days, starting dye 150-200 ppm (FIG. 3), 10080 min), the “Degradation by Phanerochaete fungus” value was 90%. The “% Decolorization, P. chrysosporium” value in [3] (initial concn 150 ppm) was found to be 97%; in series [3] (initial concn 300 ppm), 94%. The “Oxidation rate of azo dyes, P. chrysosporium Ligninase” value in the series with ligninase is 0.72 μmoles per minute per ml. Also, the “Oxidation / decolorization by ligninase” value in the series on ligninase (pH3, 0.2 mM hydrogen peroxide, 15-minute incubation) is recorded as “not detected”.

These data come from US5618726A, “Biodegradable azo dyes” (priority 1994, dated 1997).
